≈ marks a conversion by molar mass, not a printed value. Blank lines part the entries; values can stand above or below the compound they belong to. Residues, ends and D or L forms follow the SMILES beside them. *: point of attachment. Cbz = O=C(OCc1ccccc1)*
What was measured:
Cathepsin B [1] = molecular target: T1, Cathepsin B (Homo sapiens, UniProt P07858); test: Inhibitory activity against cathepsin B (sc); assay type: organism-based
Cathepsin B [2] = molecular target: T1, Cathepsin B; test: Inhibitory activity against cathepsin B (po); assay type: organism-based
Cathepsin B [3] = molecular target: T1, Cathepsin B; test: Inhibitory activity against cathepsin B (ip); assay type: organism-based
[4] = molecular target: Angiotensin-converting enzyme (Homo sapiens, UniProt P12821)
Chain of Angiotensin-converting enzyme (P12821 whole entry): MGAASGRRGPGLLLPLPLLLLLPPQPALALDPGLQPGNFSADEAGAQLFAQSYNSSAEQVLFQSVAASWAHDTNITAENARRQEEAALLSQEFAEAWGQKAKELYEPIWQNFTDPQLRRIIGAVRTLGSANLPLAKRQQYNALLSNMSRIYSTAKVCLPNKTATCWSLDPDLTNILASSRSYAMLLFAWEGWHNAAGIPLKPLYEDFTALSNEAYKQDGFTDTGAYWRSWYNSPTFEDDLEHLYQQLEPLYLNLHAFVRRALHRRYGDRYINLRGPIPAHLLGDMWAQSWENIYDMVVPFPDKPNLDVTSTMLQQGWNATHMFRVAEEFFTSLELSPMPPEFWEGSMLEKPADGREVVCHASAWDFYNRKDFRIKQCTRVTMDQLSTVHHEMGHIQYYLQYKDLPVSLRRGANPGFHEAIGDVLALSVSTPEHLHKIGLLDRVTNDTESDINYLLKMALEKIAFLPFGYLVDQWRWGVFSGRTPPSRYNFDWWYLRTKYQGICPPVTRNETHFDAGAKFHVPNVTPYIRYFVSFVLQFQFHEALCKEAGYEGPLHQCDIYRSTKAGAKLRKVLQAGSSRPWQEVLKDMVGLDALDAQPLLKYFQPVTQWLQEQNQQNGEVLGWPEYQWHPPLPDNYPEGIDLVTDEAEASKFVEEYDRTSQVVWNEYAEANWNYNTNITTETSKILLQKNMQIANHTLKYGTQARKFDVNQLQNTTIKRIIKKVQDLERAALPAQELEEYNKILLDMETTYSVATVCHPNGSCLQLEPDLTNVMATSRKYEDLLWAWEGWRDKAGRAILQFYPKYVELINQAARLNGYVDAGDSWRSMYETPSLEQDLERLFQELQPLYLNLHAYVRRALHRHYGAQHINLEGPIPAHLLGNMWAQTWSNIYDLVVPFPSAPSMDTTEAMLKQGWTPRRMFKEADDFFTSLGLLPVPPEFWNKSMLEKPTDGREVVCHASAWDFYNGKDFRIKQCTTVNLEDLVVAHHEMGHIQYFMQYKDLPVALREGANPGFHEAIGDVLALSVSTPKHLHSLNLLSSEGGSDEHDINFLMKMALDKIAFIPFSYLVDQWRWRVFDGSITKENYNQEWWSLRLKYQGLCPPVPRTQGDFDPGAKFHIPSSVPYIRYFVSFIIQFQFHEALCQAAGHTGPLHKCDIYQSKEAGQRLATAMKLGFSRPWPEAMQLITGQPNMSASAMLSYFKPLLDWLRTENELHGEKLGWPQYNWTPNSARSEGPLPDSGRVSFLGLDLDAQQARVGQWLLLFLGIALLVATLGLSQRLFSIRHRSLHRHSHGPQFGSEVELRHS

Cathepsin K = Cathepsin K (Homo sapiens, UniProt P43235); test: The apparent binding affinity against cathepsin K.; details: read-out: Ki app
Chain of Cathepsin K (P43235 whole entry): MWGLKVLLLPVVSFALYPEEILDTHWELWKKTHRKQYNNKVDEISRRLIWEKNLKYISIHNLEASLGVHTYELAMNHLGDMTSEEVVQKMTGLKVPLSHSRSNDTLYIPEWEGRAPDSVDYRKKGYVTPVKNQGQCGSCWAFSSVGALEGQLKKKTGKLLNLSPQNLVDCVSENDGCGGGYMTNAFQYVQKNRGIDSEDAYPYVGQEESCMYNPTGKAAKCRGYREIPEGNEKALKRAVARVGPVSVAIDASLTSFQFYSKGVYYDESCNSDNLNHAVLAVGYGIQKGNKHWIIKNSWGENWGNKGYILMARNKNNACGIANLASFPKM

Procathepsin L [5] = molecular target: T2, Procathepsin L (Homo sapiens, UniProt P07711)
T2 sequence (P07711 whole entry): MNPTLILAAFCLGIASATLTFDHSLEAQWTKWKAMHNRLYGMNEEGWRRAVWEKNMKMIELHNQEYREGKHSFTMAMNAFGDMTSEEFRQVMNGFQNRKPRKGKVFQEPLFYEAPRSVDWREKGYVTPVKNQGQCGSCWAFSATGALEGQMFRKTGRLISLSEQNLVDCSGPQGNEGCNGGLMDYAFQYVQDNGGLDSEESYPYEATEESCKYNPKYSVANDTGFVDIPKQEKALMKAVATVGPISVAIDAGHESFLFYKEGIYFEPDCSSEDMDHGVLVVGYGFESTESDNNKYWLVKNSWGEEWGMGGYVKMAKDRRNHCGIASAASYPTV

Cathepsin S = Cathepsin S (Homo sapiens, UniProt P25774); test: The apparent binding affinity against cathepsin S.; details: read-out: Ki app
Chain of Cathepsin S (P25774 whole entry): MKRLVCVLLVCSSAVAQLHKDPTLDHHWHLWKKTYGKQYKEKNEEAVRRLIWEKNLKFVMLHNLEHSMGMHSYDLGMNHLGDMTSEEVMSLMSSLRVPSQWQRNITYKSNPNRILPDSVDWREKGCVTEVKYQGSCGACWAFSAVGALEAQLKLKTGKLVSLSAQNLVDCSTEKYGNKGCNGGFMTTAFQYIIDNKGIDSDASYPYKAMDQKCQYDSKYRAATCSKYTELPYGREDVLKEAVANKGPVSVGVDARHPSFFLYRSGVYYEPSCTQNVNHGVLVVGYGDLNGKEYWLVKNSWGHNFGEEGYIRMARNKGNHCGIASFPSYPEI

Cathepsin B [6] = molecular target: T1, Cathepsin B
[7] = The irreversible inhibitor activity by second order rate equation.; assay type: ADME
Coagulation factor X = Coagulation factor X (Homo sapiens, UniProt P00742)
Chain of Coagulation factor X (P00742 41-179 limits assumed): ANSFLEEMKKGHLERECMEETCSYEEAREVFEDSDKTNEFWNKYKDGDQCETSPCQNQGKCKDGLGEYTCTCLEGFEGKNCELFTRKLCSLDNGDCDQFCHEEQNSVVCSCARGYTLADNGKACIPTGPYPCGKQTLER
Chain of Coagulation factor X (P00742 235-488 limits assumed): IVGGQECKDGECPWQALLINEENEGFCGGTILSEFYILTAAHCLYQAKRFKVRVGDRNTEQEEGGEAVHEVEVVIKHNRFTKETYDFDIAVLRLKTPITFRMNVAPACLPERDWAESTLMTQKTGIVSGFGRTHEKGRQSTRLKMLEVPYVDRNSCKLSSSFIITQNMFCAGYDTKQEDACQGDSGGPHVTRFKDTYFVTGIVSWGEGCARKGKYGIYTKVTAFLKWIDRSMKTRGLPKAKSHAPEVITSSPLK

[8] = molecular target: T3, Calpain-1 catalytic subunit (Homo sapiens, UniProt P07384); test: The binding affinity against calpain.
T3 sequence (P07384 whole entry): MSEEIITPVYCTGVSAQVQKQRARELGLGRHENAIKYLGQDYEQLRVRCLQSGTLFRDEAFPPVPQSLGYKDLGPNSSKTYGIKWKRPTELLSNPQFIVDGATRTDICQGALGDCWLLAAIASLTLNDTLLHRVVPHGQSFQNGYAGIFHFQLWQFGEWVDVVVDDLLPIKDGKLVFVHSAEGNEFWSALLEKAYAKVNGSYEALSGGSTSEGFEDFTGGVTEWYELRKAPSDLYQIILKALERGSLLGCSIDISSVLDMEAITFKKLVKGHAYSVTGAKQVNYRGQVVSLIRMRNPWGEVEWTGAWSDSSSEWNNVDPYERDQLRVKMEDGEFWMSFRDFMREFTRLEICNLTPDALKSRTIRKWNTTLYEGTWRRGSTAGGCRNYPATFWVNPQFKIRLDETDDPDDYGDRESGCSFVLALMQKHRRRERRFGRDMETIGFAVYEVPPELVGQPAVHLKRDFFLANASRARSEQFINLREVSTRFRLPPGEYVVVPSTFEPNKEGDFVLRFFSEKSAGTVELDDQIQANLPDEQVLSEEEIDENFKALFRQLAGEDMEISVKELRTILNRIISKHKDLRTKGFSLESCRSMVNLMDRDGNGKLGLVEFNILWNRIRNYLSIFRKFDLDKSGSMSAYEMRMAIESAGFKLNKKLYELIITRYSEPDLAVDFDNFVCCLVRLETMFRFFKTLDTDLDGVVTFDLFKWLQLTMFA

[9] = molecular target: 72 kDa type IV collagenase (Homo sapiens, UniProt P08253)
Chain of 72 kDa type IV collagenase (P08253 whole entry): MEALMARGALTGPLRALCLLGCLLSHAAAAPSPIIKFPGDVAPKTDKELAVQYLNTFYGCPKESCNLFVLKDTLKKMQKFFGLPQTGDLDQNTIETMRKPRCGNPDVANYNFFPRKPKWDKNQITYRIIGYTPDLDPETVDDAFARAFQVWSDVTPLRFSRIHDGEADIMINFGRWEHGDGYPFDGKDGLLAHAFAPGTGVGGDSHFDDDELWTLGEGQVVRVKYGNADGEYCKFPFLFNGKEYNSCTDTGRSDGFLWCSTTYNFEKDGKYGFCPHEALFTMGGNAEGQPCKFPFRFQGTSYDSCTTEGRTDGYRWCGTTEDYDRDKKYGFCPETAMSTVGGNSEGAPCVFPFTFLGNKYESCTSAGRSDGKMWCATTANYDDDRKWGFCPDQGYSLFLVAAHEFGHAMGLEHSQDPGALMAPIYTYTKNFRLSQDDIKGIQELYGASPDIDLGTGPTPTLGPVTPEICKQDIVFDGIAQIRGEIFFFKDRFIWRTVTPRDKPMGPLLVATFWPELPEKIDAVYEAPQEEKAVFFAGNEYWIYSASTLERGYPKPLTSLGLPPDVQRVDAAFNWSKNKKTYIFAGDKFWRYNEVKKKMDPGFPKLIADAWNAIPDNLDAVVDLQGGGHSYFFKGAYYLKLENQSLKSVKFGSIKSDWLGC

Stromelysin-1 = Stromelysin-1 (Homo sapiens, UniProt P08254)
Chain of Stromelysin-1 (P08254 whole entry): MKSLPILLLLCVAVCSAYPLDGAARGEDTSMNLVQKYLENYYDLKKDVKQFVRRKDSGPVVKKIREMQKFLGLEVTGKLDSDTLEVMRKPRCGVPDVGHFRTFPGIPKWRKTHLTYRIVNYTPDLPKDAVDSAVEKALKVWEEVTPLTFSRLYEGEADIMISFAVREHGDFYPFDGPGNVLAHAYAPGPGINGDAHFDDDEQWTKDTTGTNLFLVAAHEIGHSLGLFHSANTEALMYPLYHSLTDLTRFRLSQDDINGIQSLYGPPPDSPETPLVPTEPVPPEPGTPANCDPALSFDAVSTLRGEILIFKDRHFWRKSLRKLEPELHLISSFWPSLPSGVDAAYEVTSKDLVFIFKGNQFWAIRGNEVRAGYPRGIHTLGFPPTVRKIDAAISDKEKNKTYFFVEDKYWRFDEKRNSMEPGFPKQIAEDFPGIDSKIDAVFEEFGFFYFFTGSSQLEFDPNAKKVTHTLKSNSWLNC

Interstitial collagenase = molecular target: T4, Interstitial collagenase (Homo sapiens, UniProt P03956)
T4 sequence (P03956 whole entry): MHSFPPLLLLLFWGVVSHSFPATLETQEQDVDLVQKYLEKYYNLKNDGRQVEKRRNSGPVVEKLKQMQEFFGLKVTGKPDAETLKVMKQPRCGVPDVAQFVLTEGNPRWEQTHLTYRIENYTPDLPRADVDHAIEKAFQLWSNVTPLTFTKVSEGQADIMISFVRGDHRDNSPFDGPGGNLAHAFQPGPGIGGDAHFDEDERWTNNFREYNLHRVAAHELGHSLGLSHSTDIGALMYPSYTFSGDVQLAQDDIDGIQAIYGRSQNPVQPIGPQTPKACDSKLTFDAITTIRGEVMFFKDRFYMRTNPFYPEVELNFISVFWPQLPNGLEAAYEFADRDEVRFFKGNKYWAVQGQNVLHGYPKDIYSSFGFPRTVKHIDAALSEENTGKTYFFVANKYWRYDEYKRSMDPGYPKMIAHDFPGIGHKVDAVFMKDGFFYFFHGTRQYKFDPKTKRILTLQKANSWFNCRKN

Plasminogen = Plasminogen (Rattus norvegicus, UniProt Q01177); test: Inhibitory concentration against Plasmin
Chain of Plasminogen (Q01177 97-581 limits assumed): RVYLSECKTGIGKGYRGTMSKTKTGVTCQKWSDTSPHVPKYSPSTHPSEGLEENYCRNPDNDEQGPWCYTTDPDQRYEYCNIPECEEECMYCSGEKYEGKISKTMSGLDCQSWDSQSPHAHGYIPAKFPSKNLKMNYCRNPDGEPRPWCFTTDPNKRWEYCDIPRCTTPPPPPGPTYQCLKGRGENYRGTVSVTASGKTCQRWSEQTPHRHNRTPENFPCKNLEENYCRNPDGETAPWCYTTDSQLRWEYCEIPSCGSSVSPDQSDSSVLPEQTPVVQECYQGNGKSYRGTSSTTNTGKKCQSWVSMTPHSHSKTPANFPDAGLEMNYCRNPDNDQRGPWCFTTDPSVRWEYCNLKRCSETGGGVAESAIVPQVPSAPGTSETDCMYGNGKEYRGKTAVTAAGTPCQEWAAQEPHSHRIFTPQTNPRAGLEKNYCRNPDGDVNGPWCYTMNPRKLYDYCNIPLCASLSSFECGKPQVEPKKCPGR
Chain of Plasminogen (Q01177 582-812 limits assumed): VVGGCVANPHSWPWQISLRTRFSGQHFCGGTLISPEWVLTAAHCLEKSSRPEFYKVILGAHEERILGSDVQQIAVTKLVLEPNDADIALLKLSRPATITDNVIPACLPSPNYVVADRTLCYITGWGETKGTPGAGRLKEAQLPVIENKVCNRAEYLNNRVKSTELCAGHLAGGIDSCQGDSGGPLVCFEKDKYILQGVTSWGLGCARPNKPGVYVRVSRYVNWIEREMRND

Serine protease 1 = Serine protease 1 (Homo sapiens, UniProt P07477); test: Inhibitory concentration against Trypsin
Chain of Serine protease 1 (P07477 whole entry): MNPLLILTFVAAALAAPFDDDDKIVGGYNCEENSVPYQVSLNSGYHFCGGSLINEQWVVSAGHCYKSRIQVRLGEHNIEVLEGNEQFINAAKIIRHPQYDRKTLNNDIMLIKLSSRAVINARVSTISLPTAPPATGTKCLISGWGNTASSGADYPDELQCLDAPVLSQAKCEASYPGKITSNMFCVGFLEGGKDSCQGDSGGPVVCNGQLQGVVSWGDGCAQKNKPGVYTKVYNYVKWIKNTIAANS

[10] = Inhibitory concentration against Chymotrypsinogen
[11] = Inhibitory concentration against Elastase
[12] = Oral bioavailability in human; assay type: ADME, organism-based; details: in vivo
Tryptase = Tryptase (Homo sapiens, UniProt Q9BZJ3+Q15661+Q9NRR2); test: Binding affinity against Tryptase.; assay type: protein assay
Procathepsin L [13] = molecular target: T2, Procathepsin L; test: Inhibitory activity against cathepsin L, lysosomal cysteine protease

Compound: CCCCc1nc(Cl)c(CO)n1Cc1ccc(-c2ccccc2-c2nn[nH]n2)cc1 [LOSARTAN]
IC50 [4]: 19 nM

Compound: C[C@H](CSC(=O)c1ccccc1)C(=O)N1C[C@@H](Sc2ccccc2)C[C@H]1C(=O)O [ZOFENOPRIL]
IC50 [4]: 0.4 nM

Compound: CC(C)C[C@H](C(=O)NCC(=O)CNS(=O)(=O)c1ccc(Oc2ccccc2)cc1)c1cccc(-c2ccccc2)c1
Ki (Cathepsin K): 1.4 nM
Ki (Procathepsin L [5]): > 1000 nM
Ki (Cathepsin S): 910 nM
Ki (Cathepsin B [6]): > 10 µM

Compound: CC(C)C[C@H](NC(=O)OCc1ccccc1)C(=O)NC1CCN(S(=O)(=O)c2ccc(Oc3ccccc3)cc2)CC1=O (some centres undefined)
Ki (Procathepsin L [5]): > 1000 nM
Ki (Cathepsin B [6]): > 1 µM

Compound: N=C(N)c1cccc(-c2cccc([C@H](CCCNc3ccncc3)C(=O)O)c2)c1
IC50 (Coagulation factor X): 270 nM

Compound: CNC(=O)[C@@H]1CCCCN(C(=O)OC(C)(C)C)CCC[C@H](C(=O)NO)[C@@H](CC(C)C)C(=O)N1
Ki [9]: < 3 nM
Ki (Stromelysin-1): < 1 nM
Ki (Interstitial collagenase): < 0.001 µM

Compound: COC(=O)[C@H](Cc1cccc(C(=N)N)c1)[C@@H](/C=C/c1ccccc1)NC(=O)c1ccc(-c2ccc(OC)c(OC)c2)cc1
IC50 (Coagulation factor X): 30 nM

Compound: CC(/C=C/C=C/c1ccccc1)=C1/SC(=S)N(CC(=O)O)C1=O
IC50 (Plasminogen): > 145 µM
IC50 (Serine protease 1): 36.5 µM
IC50 [10]: 10.8 µg/mL (≈ 31.3 µM)
IC50 [11]: 21.6 µg/mL (≈ 62.5 µM)

Compound: N=C(N)NCCC[C@H](NC(=O)c1ccc2ccccc2c1O)C(=O)N1CCC[C@H]1C(N)=O
Ki (Tryptase): 0.84 µM

Compound: O=CC(Cc1ccccc1)NC(=O)C(Cc1ccccc1)NC(=O)OCc1ccccc1 (stereo not drawn) (Cbz-Phe-Phe-aldehyde; configuration not given here)
IC50 (Procathepsin L [13]): 0.74 nM

Next, values leading:

ED50 (Cathepsin B [1]): 2.4 mg/kg
ED50 (Cathepsin B [2]): 18 mg/kg
ED50 (Cathepsin B [3]): 5 mg/kg
Compound: Cc1cc(C)c(C(=O)OCC(=O)[C@H](CCCCN)NC(=O)[C@H](Cc2ccccc2)NC(=O)OCc2ccccc2)c(C)c1

K second [7]: 8.7 M⁻¹ s⁻¹
Compound: CC(C)C[C@H](NC(=O)[C@H]1O[C@@H]1C(=O)O)C(=O)N1CCC[C@H]1C(=O)OCc1ccccc1

Ki [8]: 41 µM
Compound: CC[C@H](NC(=O)[C@H](CC(C)C)NC(=O)OCc1ccccc1)C(=O)C(=O)NCCCN1CCOCC1

Ki (Cathepsin K): 1.4 nM
Compound: CC(C)C[C@@H](C=O)NC(=O)[C@H](CC(C)C)NC(=O)[C@H](CC(C)C)NC(=O)OCc1ccccc1 [MG-132] (Cbz-Leu-Leu-Leu-aldehyde)

K second [7]: 5.7 M⁻¹ s⁻¹
Compound: CC(C)C[C@H](NC(=O)N1CCNCC1)C(=O)N[C@H](C/C=C/S(=O)(=O)c1ccccc1)CCc1ccccc1

bioavailability [12]: < 1%
Compound: CCCCNC(=O)[C@@H](C[C@H](O)[C@H](CC1CCCCC1)NC(=O)[C@H](Cc1c[nH]cn1)NC(=O)[C@H](Cc1ccccc1)CS(=O)(=O)C(C)(C)C)C(C)C

Ki (Stromelysin-1): 30 nM
Ki (Interstitial collagenase): > 30 µM
Compound: CNC(=O)[C@@H](NC(=O)[C@H](CCCCOc1ccccc1)CP(=O)(O)Cc1ccc(Cc2ccccc2)cc1)C(C)(C)C

From ChEMBL document CHEMBL1133572, “Protease inhibitors: current status and future prospects” (J Med Chem, 2000)
